Drawing on the OligoGym collection, this text covers target mRNA inhibition for 74 sequences.

After the bases stand the sugars from the 5' end (letter, count) and the backbone: PS all phosphorothioate, else s phosphorothioate and o phosphodiester by linkage. Methylation of C is not given here. l = locked nucleic acid (LNA); d = 2'-deoxy (DNA)

The target of the data set is SNHG14. To be noted: ASO.
Setting [1] is: Mouse Primary Neuronal Cell, 0.005 µM.

As for “AAAATCTCAACTACCATTTT (sugars lllldldddddddlddllll, PS)”, the target mRNA inhibition (Human Neuronal Cell, 7.5 µM) worked out at 14%.

For the sequence “AAAATTATTTATACACCATC (sugars lldddllddddddllldlll, PS)”, where the note is “Human Neuronal Cell, 7.5 µM”, the target mRNA inhibition worked out at 63%. Regarding AAACTACCCTGCACAA (sugars l3 d10 l3, PS), the target mRNA inhibition is, setting by setting: (Human Neuronal Cell, 0.2 µM) 22%; (Human Neuronal Cell, 1 µM) 39%. As to “AAACTTTCCCAACATTAT (sugars l2 d12 l4, PS)”, the target mRNA inhibition amounted to 35% (Human Neuronal Cell, 0.2 µM) and 49% (Human Neuronal Cell, 1 µM). Regarding “AAATCTCAACTACCATTTTT (sugars ldddldlddddddldlddll, PS)”, for the setting “Human Neuronal Cell, 7.5 µM”, the target mRNA inhibition is 41%.

Turning to “AAATCTCAACTACCATTTTT (sugars lldlldldddddddldddll, PS)”, the target mRNA inhibition (Human Neuronal Cell, 7.5 µM) was 53%. On the same count and under the same terms, next, “AAATTATTTATACACCATCA (sugars ldddlldddddddldldlll, PS)”: 67%; “AAATTATTTATACACCATCA (sugars ldlllddddddddlddllll, PS)”: 68%; “AAATTATTTATACACCATCA (sugars ldllllddddddddldldll, PS)”: 70%. With “AAATTTCTCAACCTAAATTT (sugars l2 d14 l4, PS)”, the target mRNA inhibition is -9% (Human Neuronal Cell, 0.2 µM) and 2% (Human Neuronal Cell, 1 µM). The matching figures for AACATGTAATTTCCAT (sugars l2 d10 l4, PS): 31% and 27%. For AACTCTCACTGTAACT (sugars l4 d10 l2, PS), in that order: 41% and 53%. In the case of AAGAAACACCCTTCCA (sugars l2 d10 l4, PS), the target mRNA inhibition amounted to 40% (Human Neuronal Cell, 0.2 µM) and 54% (Human Neuronal Cell, 1 µM). Consider AAGATCATTCTCAACA (sugars l4 d10 l2, PS), for which the target mRNA inhibition is 60% (Human Neuronal Cell, 0.2 µM) and 67% (Human Neuronal Cell, 1 µM). With “AAGATCATTCTCAACAAT (sugars l2 d2 l2 d6 l6, PS)”, the target mRNA inhibition (Human Neuronal Cell, 7.5 µM) amounted to 47%. Still for that read-out and setting: the value for “AAGATCATTCTCAACAAT (sugars lllldlddddddldllll, PS)” was -6%. On the same count and under the same terms, next, “AATTATTTATACACCATCAT (sugars lllddllddddddldlldll, PS)”: 56%; “AATTATTTATACACCATCAT (sugars llllddldddddddldddll, PS)”: 61%. Same read-out and setting: next, “AATTTTTTTCTTACTATCTT (sugars ldllddddddddddllddll, PS)”: 44%.

Take “AATTTTTTTCTTACTATCTT (sugars lldllldddddddddldlll, PS)”: the target mRNA inhibition (Human Neuronal Cell, 7.5 µM) is 57%. For the sequence “ACACATTATATTTAAACTA (sugars l3 d13 l3, PS)”, the target mRNA inhibition by setting is: (Human Neuronal Cell, 0.2 µM) 8%; (Human Neuronal Cell, 1 µM) -2%. For the sequence “ACATCTCATACTTGCTT (sugars l2 d11 l4, PS)”, the target mRNA inhibition is, setting by setting: (Human Neuronal Cell, 0.2 µM) -4%; (Human Neuronal Cell, 1 µM) 7%; (Human Neuronal Cell, 5 µM) 9%; under setting [1], 96%. Turning to “ACATGTCCCTTTATATT (sugars l2 d13 l2, PS)”, the target mRNA inhibition reads like this: (Human Neuronal Cell, 0.2 µM) -12%; (Human Neuronal Cell, 1 µM) 8%; (Human Neuronal Cell, 5 µM) 21%; under setting [1], 85.2%.

For the sequence “ACATGTCCCTTTATATT (sugars l4 d11 l2, PS)”, the target mRNA inhibition reads like this: (Human Neuronal Cell, 0.2 µM) -15%; (Human Neuronal Cell, 1 µM) -4%; (Human Neuronal Cell, 5 µM) 9%; under setting [1], 83.7%. With “ACCAATTATACTTACAA (sugars l3 d11 l3, PS)”, the target mRNA inhibition reads like this: (Human Neuronal Cell, 0.2 µM) 21%; (Human Neuronal Cell, 1 µM) 52%. As to ACCACCTAAGACCTCA (sugars l2 d11 l3, PS), the target mRNA inhibition reads like this: (Human Neuronal Cell, 0.2 µM) 45%; (Human Neuronal Cell, 1 µM) 44%. The matching figures for ACCACTGATTTCCTTA (sugars l2 d10 l4, PS): 50% and 63%. The matching figures for ACCCATTTCTAACATT (sugars l4 d10 l2, PS): 29% and 40%. As for ACCTACATCTCATACT (sugars l2 d12 l2, PS), the target mRNA inhibition reads like this: (Human Neuronal Cell, 0.2 µM) -16%; (Human Neuronal Cell, 1 µM) 8%; (Human Neuronal Cell, 5 µM) 0%; under setting [1], 85.7%. In the case of “ACCTACATCTCATACTT (sugars l2 d11 l4, PS)”, the target mRNA inhibition under setting [1] came out at 94.2%.

As for ACCTGTAATACTTCTT (sugars l4 d10 l2, PS), the target mRNA inhibition reads like this: (Human Neuronal Cell, 0.2 µM) 48%; (Human Neuronal Cell, 1 µM) 46%.

In the case of ACTCCTAAGAATTACA (sugars l4 d10 l2, PS), the target mRNA inhibition (Human Neuronal Cell, 0.2 µM) turned out to be 34% and the target mRNA inhibition (Human Neuronal Cell, 1 µM) amounted to 34%.

ACTCTCACTGTAACTT (sugars l3 d10 l3, PS): the target mRNA inhibition turned out to be 36% (Human Neuronal Cell, 0.2 µM) and 44% (Human Neuronal Cell, 1 µM). Take “ACTCTGCAATACACCAA (sugars l1 d1 l2 d10 l3, PS)”: the target mRNA inhibition (Human Neuronal Cell, 7.5 µM) turned out to be 63%. Same read-out and setting: next, “ACTCTGCAATACACCAA (sugars ldddldddddddldlll, PS)”: 66%. For the sequence ACTGATTTCCTTAAAC (sugars l4 d10 l2, PS), the target mRNA inhibition is, setting by setting: (Human Neuronal Cell, 0.2 µM) 24%; (Human Neuronal Cell, 1 µM) 52%.

For the sequence “ACTGTTTATACCCTTTC (sugars l1 d2 l1 d9 l4, PS)”, the target mRNA inhibition (Human Neuronal Cell, 7.5 µM) was 45%.

Regarding “ACTGTTTATACCCTTTC (sugars l2 d10 l1 d2 l2, PS)”, the target mRNA inhibition (Human Neuronal Cell, 7.5 µM) was determined as 60%. Same read-out and setting: the value for “ACTGTTTATACCCTTTC (sugars ldddlddddddddldll, PS)” was 55%; that for “ACTGTTTATACCCTTTCC (sugars l1 d11 l1 d3 l2, PS)” was 56%. As for “ACTTTACTGCCATAATC (sugars l3 d11 l3, PS)”, the target mRNA inhibition amounted to 40% (Human Neuronal Cell, 0.2 µM) and 33% (Human Neuronal Cell, 1 µM). As to “AGATCATTCTCAACAATTA (sugars ldlddldddddddllldll, PS)”, the target mRNA inhibition (Human Neuronal Cell, 7.5 µM) turned out to be 50%.

In the case of “AGCAACATTATTAACCAC (sugars l2 d1 l1 d9 l5, PS)”, under “Human Neuronal Cell, 7.5 µM”, the target mRNA inhibition was found to be 61%.

For the sequence “AGCAACATTATTAACCAC (sugars ldllldddddddlldlll, PS)”, the target mRNA inhibition (Human Neuronal Cell, 7.5 µM) turned out to be 26%. On the same count and under the same terms, next, “AGCAACATTATTAACCACC (sugars l2 d1 l2 d12 l2, PS)”: 63%; “AGCAACATTATTAACCACC (sugars lddddlddddddlldddll, PS)”: 45%.

As for AGCACATATACCATCA (sugars l4 d10 l2, PS), the target mRNA inhibition runs as follows: (Human Neuronal Cell, 0.2 µM) 51%; (Human Neuronal Cell, 1 µM) 56%. The matching figures for “AGCATTCAACCCTAATC (sugars l4 d11 l2, PS)”: 52% and 50%. The matching figures for AGCTCCATATTTAAAT (sugars l4 d10 l2, PS): 10% and -9%. “AGTTCTACTATACTTTC (sugars l3 d11 l3, PS)”: the target mRNA inhibition (Human Neuronal Cell, 7.5 µM) was 57%.

As for “AGTTCTACTATACTTTCC (sugars l1 d4 l1 d10 l2, PS)”, the target mRNA inhibition (Human Neuronal Cell, 7.5 µM) was determined as 49%. Same read-out and setting: next, “AGTTCTACTATACTTTCC (sugars l1 d15 l2, PS)”: 11%.

For ATAAGCTTACCTCATA (sugars l2 d10 l4, PS), the target mRNA inhibition by setting is: (Human Neuronal Cell, 0.2 µM) 62%; (Human Neuronal Cell, 1 µM) 68%. For “ATAATCCCATACATCTA (sugars l3 d11 l3, PS)”, in that order: 60% and 69%.

For ATACACAGCACATATT (sugars l2 d10 l4, PS), the target mRNA inhibition (Human Neuronal Cell, 0.2 µM) turned out to be 29% and the target mRNA inhibition (Human Neuronal Cell, 1 µM) was 43%. For ATATAAGCTTACCTCA (sugars l4 d10 l2, PS), in that order: 56% and 68%. As to “ATATTGATTCAATTCCC (sugars l1 d1 l3 d10 l2, PS)”, the target mRNA inhibition (Human Neuronal Cell, 7.5 µM) was found to be 70%. The same measure, in the same setting: the value for “ATATTGATTCAATTCCC (sugars l1 d2 l1 d7 l6, PS)” was 51%; that for “ATATTGATTCAATTCCC (sugars l1 d3 l1 d8 l4, PS)” was 67%. With ATCATCAGTTACATCA (sugars l4 d10 l2, PS), the target mRNA inhibition was found to be 62% (Human Neuronal Cell, 0.2 µM) and 63% (Human Neuronal Cell, 1 µM). For the sequence “ATCATTCTCAACAATTA (sugars l4 d7 l1 d1 l4, PS)”, for the setting “Human Neuronal Cell, 7.5 µM”, the target mRNA inhibition is 53%. The same measure, in the same setting: the value for “ATCATTCTCAACAATTAA (sugars l4 d8 l6, PS)” was 44%; that for “ATCATTCTCAACAATTAAA (sugars l4 d1 l1 d8 l5, PS)” was 49%. For “ATCATTTCATATTACTA (sugars l3 d11 l3, PS)”, the target mRNA inhibition by setting is: (Human Neuronal Cell, 0.2 µM) 43%; (Human Neuronal Cell, 1 µM) 56%. For ATCCTGTTAATACCAT (sugars l2 d10 l4, PS), in that order: 45% and 39%. Take “ATCTCATGACCACCTAA (sugars l1 d12 l4, PS)”: the target mRNA inhibition (Human Neuronal Cell, 7.5 µM) was found to be 48%. Same read-out and setting: the value for “ATCTCATGACCACCTAA (sugars ldlllddddddddldll, PS)” was 66%. Take ATCTGAATCAAACCTT (sugars l2 d10 l4, PS): the target mRNA inhibition is, setting by setting: (Human Neuronal Cell, 0.2 µM) 45%; (Human Neuronal Cell, 1 µM) 45%.

Consider “ATCTTTCCATTTATTTCC (sugars l3 d12 l3, PS)”, for which the target mRNA inhibition (Human Neuronal Cell, 0.2 µM) was 52% and the target mRNA inhibition (Human Neuronal Cell, 1 µM) was found to be 56%.

Regarding “ATCTTTCCATTTATTTCCA (sugars ldddlddddddddldddll, PS)”, the target mRNA inhibition (Human Neuronal Cell, 7.5 µM) came out at 42%. On the same count and under the same terms, the value for “ATCTTTCCATTTATTTCCAT (sugars lddlddddddddddddldll, PS)” was 40%. As to ATGCTTCTAACTAACA (sugars l4 d10 l2, PS), the target mRNA inhibition (Human Neuronal Cell, 0.2 µM) is 25% and the target mRNA inhibition (Human Neuronal Cell, 1 µM) was 46%. For ATTCAACCCTAATCAC (sugars l2 d10 l4, PS), in that order: 16% and 26%. “ATTGATTCAATTCCCTT (sugars l1 d1 l2 d9 l4, PS)”: the target mRNA inhibition (Human Neuronal Cell, 7.5 µM) is 67%.
